Laboratory results from patent US20240366543A1, “METHODS OF TREATING METHYLMALONIC ACIDEMIA AND PROPIONIC ACIDEMIA” (HemoShear Therapeutics, Inc., priority 2021, published 2024).
Converted amounts (≈) assume the structure as drawn. “And” between values parts separate entries of the source, which are not always exact repeats. Identical values can stand only once. Like-named read-outs stand apart in the source and are kept apart here.

How the values were obtained:
[1] = test system: primary hepatocyte model of isovaleric acidemia; test: Isovaleryl-CoA from 13C-leucine in primary hepatocyte model of isovaleric acidemia (Example 4); format: cell-based; conditions: primary hepatocytes with/without isovaleryl-CoA dehydrogenase inhibitor
Procedure: Primary hepatocytes are treated with increasing doses of Compound 5 (0, 0.1, 0.3, 1, 3, 10, 30, 100 μM) with and without an inhibitor for isovaleryl-CoA dehydrogenase for 30 min. After 30 min the cells are challenged with 13C-leucine. At the end of the challenge period, media is removed and the cells are lysed with 70% MeCN and 0.1% TFA containing 100 μM of ethymalonyl-CoA as an internal standard and harvested. Cell lysates are processed for HTMS/MS analysis.

[2] = test system: Normal pHeps; test: HemoShear Technology, normal pHeps; format: cell-based, human; conditions: exposed 6 days
Text: For this experiment, we deployed the HemoShear REVEAL-Tx™ technology, which is based on the cone-and-plate configuration or viscometer combined with a porous polycarbonate membrane that mimics a filtering layer of sinusoidal endothelial cells (see: Dash A, Deering TG, Marukian S, et al. Physiological Hemodynamics and Transport Restore Insulin and Glucagon Responses in a Normal Glucose Milieu in Hepatocytes In Vitro. 73rd Scientific Sessions of the American Diabetes Association, 2013 (Chicago), and U.S. Pat. Nos. 7,811,782 and 9,500,642, and 9,617,521, each of which is incorporated by reference herein in its entirety). […]
In PA and MMA pHeps, where P-CoA and M-CoA levels are very high, there is a dramatic reduction in P-CoA and M-CoA pools with Compound 5 treatment (Table 2 and Table 3). […] The effect of Compound 5 on levels of acetyl-CoA were measured in PA and MMA pHeps in acute static experiments and in PA, MMA and normal pHeps following chronic exposures in the HemoShear Technology (FIG. 5B; FIG. 6B). […]
To further evaluate the hypothesis that Compound 5 drives a redistribution of the acyl-CoA pools resulting in a reduction in P-CoA and M-CoA, the levels of CoASH were measured in the PA and MMA disease models. […]

[3] = test system: primary hepatocytes (pHeps) from PA donors; test: HemoShear REVEAL-Tx Technology, PA pHeps; format: cell-based, human
Text: For this experiment, we deployed the HemoShear REVEAL-Tx™ technology, which is based on the cone-and-plate configuration or viscometer combined with a porous polycarbonate membrane that mimics a filtering layer of sinusoidal endothelial cells (see: Dash A, Deering TG, Marukian S, et al. Physiological Hemodynamics and Transport Restore Insulin and Glucagon Responses in a Normal Glucose Milieu in Hepatocytes In Vitro. 73rd Scientific Sessions of the American Diabetes Association, 2013 (Chicago), and U.S. Pat. Nos. 7,811,782 and 9,500,642, and 9,617,521, each of which is incorporated by reference herein in its entirety).
Hepatocytes from propionic academia patients are plated in a collagen gel sandwich on one side of the membrane replicating the polarized orientation found in vivo within the hepatic sinusoids. On the other side, medium is continuously perfused and surface shear rates are applied across a range of physiological values derived from sinusoidal flow rates in vivo while also controlling transport in the system with in- and out-flow tubing to each compartment. Effectively, this creates a flow-based culture system where hepatocytes are shielded from direct effects of flow, as they would be in vivo, but perfusion, nutrient gradients, and interstitial fluid movement are maintained.
Biomarker levels are normalized to cell counts and cell volume to account for differences in the number of cells plated for each donor. […] This is most likely due to the presence of ^12C-succinyl-CoA in the sample, which has the same mass. In experiments described below, M-CoA is labeled with ^13C to determine a more accurate percent reduction. Compound 5 reduced the C3 concentration and the C3/C2 ratio with an EC50 similar to that for the reduction in P-CoA (FIGS. 3C, 3D).

[4] = Phase 2 study preliminary plasma pharmacokinetics in PA/MMA subjects; format: in vivo, human; conditions: for C24 / concentration at 24 h: 24 hours post-dose; for C24: C24projected: ratio observed to projected; for AUC(0-t): read-out: AUC0-24 h; for concentration at 24 h: read-out: C24
Procedure: Part A is the dose escalation phase to assess the initial safety and to confirm the pharmacologic activity of Compound 5 in subjects with PA and MMA. Screening for eligibility took place within 28 days of enrollment. All subjects were initially evaluated during a 4-week run-in period followed by within-subject dose escalation of 3 doses (1, 3, and 10 mg/kg QD of sodium 2,2-dimethylbutanoate); dose escalation interval of 4 weeks) to check for improvement in disease-related biomarkers.
Plasma will be analyzed by liquid chromatography with tandem mass spectrometry (LC-MS/MS) with a lower limit of quantitation of 0.100 μg/mL. Samples collected for analyses of Compound 5 (plasma/serum/whole blood)] concentration may also be used to evaluate safety or efficacy aspects related to concerns arising during or after the study.
Preliminary pharmacokinetics (PK) data from the first two subjects of Study described in Examples 7-8 was evaluated at 1 mg/kg, 3 mg/kg and 10 mg/kg of Compound 5 dosed once daily (QD).

[5] = PA pHeps, HemoShear Technology, average ± SD
[6] = PA pHeps, HemoShear Technology, exposed 6 days
[7] = 1 mg/kg QD, single dose, individual subjects 010-1001, 010-1002, preliminary
[8] = 1 mg/kg QD, steady-state, individual subjects
[9] = 3 mg/kg QD, steady-state, individual subjects
[10] = 10 mg/kg QD, steady-state, individual subjects
[11] = human, plasma, oral, 1 mg/kg, 1 mg/kg QD, steady-state, individual subjects
[12] = human, plasma, oral, 10 mg/kg, 10 mg/kg QD, steady-state, individual subjects

With `CCC(C)(C)C(=O)O` [Compound 5, 2,2-dimethylbutyric acid] the “intracellular isovaleryl-CoA derived from 13C-leucine” value [1] was “dose-dependent reduction”, the “Percent change at 30 μM, 12C-Acetyl-CoA” value [2] was 20 ± 2.9% and the “Percent change at 30 μM, CoASH” value [2] was −35.2 ± 3%. The “EC50 value for CoASH relative to EC50 value for reduction in disease biomarkers” value ([3]; HemoShear Technology, PA and MMA pHeps, 6 days) was 10 fold, the EC90 ([3]; Homo sapiens, Hepatocyte, exposure threshold used for comparison with clinical PK, read-out: estimated in vitro EC90) was 2.32 µg/mL (≈ 20 µM) and the “average reduction in the C3/C2 ratio (log 2 fold change)” value ([3]; PA pHeps, HemoShear Technology, 30 μM) was −2.1±1.2 log 2 fold change. The “% change at 30 μM, 2-Methylcitric acid (2MC)” value [3, 5] was −78.6±12.9%, the “% change at 30 μM, 12C-Acetyl-Carnitine (C2)” value [3, 5] was 54 ± 80.6% and the “% change at 30 μM, 12C-Propionyl-Carnitine (C3)” value [3, 5] was −68.9±14.6% and −69.4 ± 16.2%. The “% change at 30 μM, 12C-Propionyl-CoA (P-CoA)” value [3, 5] was −78.8±10.9%, the “Percent change at 30 μM, 12C-Acetyl-CoA” value [3, 6] was 54 ± 80.6% and the “Percent change at 30 μM, CoASH” value [3, 6] was −31.3 ± 24.2%. For the same compound, the AUC0-24 h [4, 7] was 22800 ng·h/mL, the Cmax [4, 7] was 1740 ng/mL and the C24 [4, 8] was 0.765 µg/mL. For the same compound, the AUC0-24 h [4, 8] was 36500 ng·h/mL, the Cmax ([4]; 1 mg/kg QD, steady-state, individual subjects 010-1001, 010-1002) was 2930 ng/mL and the “C24: C24projected” value [4, 8] was 1.27 and 0.829. The C24 [4, 9] was 3.34 µg/mL and 1.01 µg/mL, the AUC0-24 h [4, 9] was 115000 ng·h/mL and the Cmax ([4]; 3 mg/kg QD, steady-state, individual subjects 010-1001, 010-1002) was 11400 ng/mL. The “C24: C24projected” value [4, 9] was 1.21 and 0.365, the C24 [4, 10] was 13.1 µg/mL and the AUC0-24 h [4, 10] was 678000 ng·h/mL. The Cmax ([4]; 10 mg/kg QD, steady-state, individual subjects 010-1001, 010-1002) was 50600 ng/mL, the “C24: C24projected” value [4, 10] was 0.985 and 1.42 and the AUC(0-t) ([4]; human, plasma, oral, 1 mg/kg, 1 mg/kg QD, single dose, individual subjects 010-1001, 010-1002, preliminary) was 30800 ng·h/mL. The Cmax ([4]; human, plasma, oral, 1 mg/kg, 1 mg/kg QD, single dose, individual subjects 010-1001, 010-1002, preliminary, read-out: Cmax) was 2620 ng/mL, the concentration at 24 h [4, 11] was 1170 ng/mL and the Cmax ([4]; human, plasma, oral, 1 mg/kg, 1 mg/kg QD, steady-state, individual subjects 010-1001, 010-1002, read-out: Cmax) was 4410 ng/mL. For the same compound, the AUC(0-t) [4, 11] was 56500 ng·h/mL, the Cmax ([4]; human, plasma, oral, 3 mg/kg, 3 mg/kg QD, steady-state, individual subjects 010-1001, 010-1002, read-out: Cmax) was 15900 ng/mL and the AUC(0-t) ([4]; human, plasma, oral, 3 mg/kg, 3 mg/kg QD, steady-state, individual subjects) was 189000 ng·h/mL. For the same compound, the concentration at 24 h [4, 12] was 9090 ng/mL, the Cmax ([4]; human, plasma, oral, 10 mg/kg, 10 mg/kg QD, steady-state, individual subjects 010-1001, 010-1002, read-out: Cmax) was 50700 ng/mL and the AUC(0-t) [4, 12] was 557000 ng·h/mL.
